Experimental data published in ChEMBL document CHEMBL5678818, “Discovery of potent SOS1 inhibitors that block RAS activation via disruption of the RAS-SOS1 interaction” (Proc Natl Acad Sci U S A, 2019).

Tests used:
[1] = target: Casein kinase I isoform alpha (Homo sapiens) (UniProt P48729); test: Inhibition of CSNK1A1 (unknown origin) assessed as residual activity at 1000 nM by KINOMEscan analysis relative to control
[2] = target: Casein kinase I isoform gamma-1 (Homo sapiens) (UniProt Q9HCP0); test: Inhibition of CSNK1G1 (unknown origin) assessed as residual activity at 1000 nM by KINOMEscan analysis relative to control
Casein kinase I isoform gamma-1 (Homo sapiens), sequence (Q9HCP0 whole entry, looked up, canonical isoform): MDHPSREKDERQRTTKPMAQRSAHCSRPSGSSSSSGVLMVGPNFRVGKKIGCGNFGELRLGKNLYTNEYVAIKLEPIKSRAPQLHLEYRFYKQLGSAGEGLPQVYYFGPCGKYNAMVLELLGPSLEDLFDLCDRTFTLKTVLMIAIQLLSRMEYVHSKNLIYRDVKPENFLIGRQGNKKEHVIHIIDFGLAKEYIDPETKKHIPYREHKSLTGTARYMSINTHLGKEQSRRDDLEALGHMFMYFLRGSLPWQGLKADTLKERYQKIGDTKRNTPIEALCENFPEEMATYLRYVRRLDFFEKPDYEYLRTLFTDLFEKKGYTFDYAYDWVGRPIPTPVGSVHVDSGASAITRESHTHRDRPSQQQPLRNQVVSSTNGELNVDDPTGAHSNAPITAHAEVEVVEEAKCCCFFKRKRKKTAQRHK

[3] = system: Epidermal growth factor receptor (Homo sapiens), P00533 [UNDEFINED MUTATION]; test: Inhibition of EGFR L747-T751del/Sins mutant (unknown origin) assessed as residual activity at 1000 nM by KINOMEscan analysis relative to control
Epidermal growth factor receptor (Homo sapiens), P00533 [UNDEFINED MUTATION], sequence (P00533 whole entry, looked up, stated change not applied): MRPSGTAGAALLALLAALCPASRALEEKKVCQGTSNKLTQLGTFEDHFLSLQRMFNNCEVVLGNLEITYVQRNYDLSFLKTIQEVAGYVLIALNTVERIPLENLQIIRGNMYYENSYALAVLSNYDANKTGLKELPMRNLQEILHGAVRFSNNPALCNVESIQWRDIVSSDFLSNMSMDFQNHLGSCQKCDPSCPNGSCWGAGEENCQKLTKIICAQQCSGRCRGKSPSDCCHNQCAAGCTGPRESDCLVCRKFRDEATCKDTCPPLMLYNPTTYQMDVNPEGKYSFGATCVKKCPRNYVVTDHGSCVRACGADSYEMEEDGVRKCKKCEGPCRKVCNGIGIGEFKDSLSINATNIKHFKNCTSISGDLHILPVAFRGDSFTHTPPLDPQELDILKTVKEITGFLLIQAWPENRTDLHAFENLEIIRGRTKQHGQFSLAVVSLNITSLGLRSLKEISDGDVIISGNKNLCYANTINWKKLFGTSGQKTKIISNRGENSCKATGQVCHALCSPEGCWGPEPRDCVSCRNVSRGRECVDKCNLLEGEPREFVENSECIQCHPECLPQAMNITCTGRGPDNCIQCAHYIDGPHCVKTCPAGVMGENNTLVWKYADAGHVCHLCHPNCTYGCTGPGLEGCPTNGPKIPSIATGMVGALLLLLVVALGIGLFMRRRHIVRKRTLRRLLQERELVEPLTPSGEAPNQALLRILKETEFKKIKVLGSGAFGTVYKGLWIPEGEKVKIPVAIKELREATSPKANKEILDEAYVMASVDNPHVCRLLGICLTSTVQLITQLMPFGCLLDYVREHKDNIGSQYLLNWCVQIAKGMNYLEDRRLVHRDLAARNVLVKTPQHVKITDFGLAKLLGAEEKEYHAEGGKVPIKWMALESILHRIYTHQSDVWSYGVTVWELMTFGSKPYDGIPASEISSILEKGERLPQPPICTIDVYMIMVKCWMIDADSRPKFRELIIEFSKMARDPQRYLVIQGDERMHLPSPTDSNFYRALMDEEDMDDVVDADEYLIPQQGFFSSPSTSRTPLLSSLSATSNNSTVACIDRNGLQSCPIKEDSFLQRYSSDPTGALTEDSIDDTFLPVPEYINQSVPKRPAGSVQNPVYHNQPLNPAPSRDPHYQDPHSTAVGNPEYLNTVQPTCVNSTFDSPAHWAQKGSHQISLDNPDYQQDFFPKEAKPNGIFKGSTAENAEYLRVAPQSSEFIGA

[4] = target: Tyrosine-protein kinase Fyn (Homo sapiens) (UniProt P06241); test: Inhibition of FYN (unknown origin) assessed as residual activity at 1000 nM by KINOMEscan analysis relative to control
Tyrosine-protein kinase Fyn (Homo sapiens), sequence (P06241 2-537 limits assumed): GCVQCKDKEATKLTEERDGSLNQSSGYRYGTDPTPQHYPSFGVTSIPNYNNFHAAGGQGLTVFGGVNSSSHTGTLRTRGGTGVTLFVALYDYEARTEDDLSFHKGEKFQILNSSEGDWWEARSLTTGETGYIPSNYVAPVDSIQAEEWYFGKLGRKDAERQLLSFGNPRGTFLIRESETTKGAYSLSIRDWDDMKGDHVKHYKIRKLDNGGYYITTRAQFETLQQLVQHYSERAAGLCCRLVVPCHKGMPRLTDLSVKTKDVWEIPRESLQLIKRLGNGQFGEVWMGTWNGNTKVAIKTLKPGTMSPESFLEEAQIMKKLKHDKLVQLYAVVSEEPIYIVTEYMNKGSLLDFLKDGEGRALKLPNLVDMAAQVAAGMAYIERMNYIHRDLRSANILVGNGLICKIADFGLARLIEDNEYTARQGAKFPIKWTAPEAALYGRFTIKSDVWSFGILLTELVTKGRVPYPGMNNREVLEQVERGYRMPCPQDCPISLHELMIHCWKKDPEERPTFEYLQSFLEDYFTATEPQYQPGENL

[5] = target: Tyrosine-protein kinase JAK1 (Homo sapiens) (UniProt P23458); test: Inhibition of JAK1 JH1 catalytic domain (unknown origin) assessed as residual activity at 1000 nM by KINOMEscan analysis relative to control
Tyrosine-protein kinase JAK1 (Homo sapiens), sequence (P23458 whole entry, the tested form may be a part): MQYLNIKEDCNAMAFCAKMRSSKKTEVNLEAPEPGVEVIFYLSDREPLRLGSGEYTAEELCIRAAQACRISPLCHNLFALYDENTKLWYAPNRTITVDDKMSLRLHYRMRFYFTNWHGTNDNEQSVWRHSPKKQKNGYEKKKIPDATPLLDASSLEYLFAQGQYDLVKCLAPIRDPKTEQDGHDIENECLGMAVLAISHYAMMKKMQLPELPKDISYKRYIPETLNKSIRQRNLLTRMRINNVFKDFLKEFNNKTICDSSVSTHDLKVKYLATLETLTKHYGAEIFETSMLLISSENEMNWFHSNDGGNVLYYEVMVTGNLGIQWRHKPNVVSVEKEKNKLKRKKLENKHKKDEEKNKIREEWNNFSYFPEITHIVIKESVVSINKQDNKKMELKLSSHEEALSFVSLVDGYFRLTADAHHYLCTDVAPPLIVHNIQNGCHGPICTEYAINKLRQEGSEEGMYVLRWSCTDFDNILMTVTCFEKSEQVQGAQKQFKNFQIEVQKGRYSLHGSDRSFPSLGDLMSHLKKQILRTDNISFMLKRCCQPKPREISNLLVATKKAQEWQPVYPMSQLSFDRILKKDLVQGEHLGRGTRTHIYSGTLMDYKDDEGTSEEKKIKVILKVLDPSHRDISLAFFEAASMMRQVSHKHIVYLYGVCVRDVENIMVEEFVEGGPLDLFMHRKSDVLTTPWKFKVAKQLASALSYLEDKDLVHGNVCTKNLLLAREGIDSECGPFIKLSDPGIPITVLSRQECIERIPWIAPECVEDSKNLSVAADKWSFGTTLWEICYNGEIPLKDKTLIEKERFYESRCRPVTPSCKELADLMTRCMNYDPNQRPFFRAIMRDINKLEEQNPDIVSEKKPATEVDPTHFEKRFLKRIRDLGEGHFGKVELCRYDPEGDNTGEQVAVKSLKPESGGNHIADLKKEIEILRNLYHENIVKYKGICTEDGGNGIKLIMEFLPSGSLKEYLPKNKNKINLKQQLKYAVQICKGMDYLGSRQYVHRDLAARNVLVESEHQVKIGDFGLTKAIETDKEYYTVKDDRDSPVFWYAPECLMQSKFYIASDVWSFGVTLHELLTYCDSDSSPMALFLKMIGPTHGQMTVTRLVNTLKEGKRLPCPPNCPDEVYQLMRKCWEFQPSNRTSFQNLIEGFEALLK

[6] = target: T1, Myosin-IIIb (Homo sapiens) (UniProt Q8WXR4); test: Inhibition of MYO3B (unknown origin) assessed as residual activity at 1000 nM by KINOMEscan analysis relative to control
T1 sequence (whole entry): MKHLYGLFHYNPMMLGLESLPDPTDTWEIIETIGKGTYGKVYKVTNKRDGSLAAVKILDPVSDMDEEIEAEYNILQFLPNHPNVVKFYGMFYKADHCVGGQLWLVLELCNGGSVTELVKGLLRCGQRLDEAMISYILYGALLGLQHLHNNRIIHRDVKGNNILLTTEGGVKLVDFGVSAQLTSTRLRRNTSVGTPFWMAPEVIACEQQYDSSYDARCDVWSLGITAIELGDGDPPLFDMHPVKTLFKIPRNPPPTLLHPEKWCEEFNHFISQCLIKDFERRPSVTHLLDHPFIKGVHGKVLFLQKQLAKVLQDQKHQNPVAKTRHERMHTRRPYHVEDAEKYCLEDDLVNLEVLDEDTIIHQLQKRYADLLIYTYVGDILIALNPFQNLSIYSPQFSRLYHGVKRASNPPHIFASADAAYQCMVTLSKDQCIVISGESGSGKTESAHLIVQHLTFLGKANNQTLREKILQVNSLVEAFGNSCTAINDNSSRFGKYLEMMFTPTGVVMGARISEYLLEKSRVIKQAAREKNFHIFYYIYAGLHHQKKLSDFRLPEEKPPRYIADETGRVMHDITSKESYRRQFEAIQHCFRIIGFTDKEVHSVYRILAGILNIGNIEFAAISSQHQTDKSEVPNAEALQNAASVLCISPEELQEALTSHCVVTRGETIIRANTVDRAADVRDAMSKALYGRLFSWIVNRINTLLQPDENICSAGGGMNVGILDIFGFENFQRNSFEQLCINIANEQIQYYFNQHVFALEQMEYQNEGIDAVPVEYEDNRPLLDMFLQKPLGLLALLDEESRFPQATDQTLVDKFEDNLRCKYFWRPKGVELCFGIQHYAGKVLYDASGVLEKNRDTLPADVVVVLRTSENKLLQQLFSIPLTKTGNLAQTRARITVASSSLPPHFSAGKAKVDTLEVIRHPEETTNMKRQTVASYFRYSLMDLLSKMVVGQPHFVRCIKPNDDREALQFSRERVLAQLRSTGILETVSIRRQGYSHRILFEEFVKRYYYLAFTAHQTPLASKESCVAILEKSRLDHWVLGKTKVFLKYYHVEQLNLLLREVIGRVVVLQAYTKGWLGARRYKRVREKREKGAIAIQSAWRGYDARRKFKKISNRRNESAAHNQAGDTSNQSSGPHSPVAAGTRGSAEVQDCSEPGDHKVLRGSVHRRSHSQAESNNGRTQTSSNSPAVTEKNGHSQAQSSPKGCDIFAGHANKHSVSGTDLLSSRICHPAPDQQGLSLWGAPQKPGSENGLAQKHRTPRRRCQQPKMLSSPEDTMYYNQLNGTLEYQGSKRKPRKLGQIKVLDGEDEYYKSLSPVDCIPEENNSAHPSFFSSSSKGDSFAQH

[7] = target: Phosphorylase b kinase gamma catalytic chain, skeletal muscle/heart isoform (Homo sapiens) (UniProt Q16816); test: Inhibition of PHKG1 (unknown origin) assessed as residual activity at 1000 nM by KINOMEscan analysis relative to control
[8] = system: Proto-oncogene tyrosine-protein kinase receptor Ret (Homo sapiens), P07949 [V804L]; test: Inhibition of RET V804L mutant (unknown origin) assessed as residual activity at 1000 nM by KINOMEscan analysis relative to control
Proto-oncogene tyrosine-protein kinase receptor Ret (Homo sapiens), P07949 [V804L], sequence (P07949 whole entry V804L): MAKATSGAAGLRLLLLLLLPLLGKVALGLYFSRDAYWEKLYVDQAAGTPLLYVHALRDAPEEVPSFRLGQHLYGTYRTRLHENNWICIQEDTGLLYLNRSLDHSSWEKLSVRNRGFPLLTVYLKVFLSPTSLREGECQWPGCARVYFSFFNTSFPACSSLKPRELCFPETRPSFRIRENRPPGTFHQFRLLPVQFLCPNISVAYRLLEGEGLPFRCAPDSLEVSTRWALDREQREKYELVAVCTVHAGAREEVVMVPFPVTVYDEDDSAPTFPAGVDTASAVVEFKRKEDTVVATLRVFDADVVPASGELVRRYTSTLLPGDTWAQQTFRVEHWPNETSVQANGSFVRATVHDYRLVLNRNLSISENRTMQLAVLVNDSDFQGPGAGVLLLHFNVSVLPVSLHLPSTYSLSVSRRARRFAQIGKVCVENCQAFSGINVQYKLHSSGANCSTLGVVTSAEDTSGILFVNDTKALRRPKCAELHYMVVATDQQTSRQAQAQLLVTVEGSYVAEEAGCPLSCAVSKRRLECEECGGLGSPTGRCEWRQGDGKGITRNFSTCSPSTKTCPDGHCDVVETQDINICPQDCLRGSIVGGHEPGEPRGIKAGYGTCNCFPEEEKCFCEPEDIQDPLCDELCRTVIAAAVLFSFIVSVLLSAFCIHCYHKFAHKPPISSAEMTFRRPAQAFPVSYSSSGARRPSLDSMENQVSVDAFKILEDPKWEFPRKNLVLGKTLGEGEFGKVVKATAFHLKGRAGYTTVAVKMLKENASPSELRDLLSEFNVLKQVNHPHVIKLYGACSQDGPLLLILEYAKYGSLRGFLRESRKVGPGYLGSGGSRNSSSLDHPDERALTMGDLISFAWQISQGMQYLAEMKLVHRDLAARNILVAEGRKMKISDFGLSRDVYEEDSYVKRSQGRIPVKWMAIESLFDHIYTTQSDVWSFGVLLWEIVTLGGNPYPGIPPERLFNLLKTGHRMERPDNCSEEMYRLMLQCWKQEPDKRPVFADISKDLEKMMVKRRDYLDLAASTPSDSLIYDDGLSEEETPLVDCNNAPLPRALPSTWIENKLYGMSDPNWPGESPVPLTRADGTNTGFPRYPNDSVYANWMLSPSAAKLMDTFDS

[9] = target: T2, Serine/threonine-protein kinase TAO1 (Homo sapiens) (UniProt Q7L7X3); test: Inhibition of TAOK1 (unknown origin) assessed as residual activity at 1000 nM by KINOMEscan analysis relative to control
T2 sequence (whole entry): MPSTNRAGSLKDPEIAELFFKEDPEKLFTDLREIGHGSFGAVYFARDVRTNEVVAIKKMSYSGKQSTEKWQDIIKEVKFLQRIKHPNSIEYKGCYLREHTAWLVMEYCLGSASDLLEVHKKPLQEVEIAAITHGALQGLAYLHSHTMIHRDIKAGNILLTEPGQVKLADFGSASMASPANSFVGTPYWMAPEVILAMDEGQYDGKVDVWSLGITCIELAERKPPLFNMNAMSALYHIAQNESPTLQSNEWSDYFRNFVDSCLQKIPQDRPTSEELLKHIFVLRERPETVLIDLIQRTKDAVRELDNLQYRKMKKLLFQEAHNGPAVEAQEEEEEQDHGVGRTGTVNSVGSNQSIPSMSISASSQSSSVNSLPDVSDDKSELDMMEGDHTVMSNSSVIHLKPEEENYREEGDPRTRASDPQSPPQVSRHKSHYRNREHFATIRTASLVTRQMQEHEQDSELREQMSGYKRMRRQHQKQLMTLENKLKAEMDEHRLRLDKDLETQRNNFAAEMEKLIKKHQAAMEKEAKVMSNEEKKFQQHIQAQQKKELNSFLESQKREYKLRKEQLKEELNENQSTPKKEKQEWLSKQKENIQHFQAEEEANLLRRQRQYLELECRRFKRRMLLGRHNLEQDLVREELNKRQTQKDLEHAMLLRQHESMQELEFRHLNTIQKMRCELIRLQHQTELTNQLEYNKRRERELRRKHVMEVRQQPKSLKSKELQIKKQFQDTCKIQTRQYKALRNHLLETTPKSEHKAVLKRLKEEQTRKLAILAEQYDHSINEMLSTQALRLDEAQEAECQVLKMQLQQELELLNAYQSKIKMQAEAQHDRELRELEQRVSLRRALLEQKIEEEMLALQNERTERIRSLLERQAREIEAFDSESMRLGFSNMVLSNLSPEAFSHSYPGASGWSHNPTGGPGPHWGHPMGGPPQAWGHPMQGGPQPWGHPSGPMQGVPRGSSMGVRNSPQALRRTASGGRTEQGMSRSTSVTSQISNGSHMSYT

Casein kinase I isoform alpha (Homo sapiens), sequence (P48729 2-337 limits assumed): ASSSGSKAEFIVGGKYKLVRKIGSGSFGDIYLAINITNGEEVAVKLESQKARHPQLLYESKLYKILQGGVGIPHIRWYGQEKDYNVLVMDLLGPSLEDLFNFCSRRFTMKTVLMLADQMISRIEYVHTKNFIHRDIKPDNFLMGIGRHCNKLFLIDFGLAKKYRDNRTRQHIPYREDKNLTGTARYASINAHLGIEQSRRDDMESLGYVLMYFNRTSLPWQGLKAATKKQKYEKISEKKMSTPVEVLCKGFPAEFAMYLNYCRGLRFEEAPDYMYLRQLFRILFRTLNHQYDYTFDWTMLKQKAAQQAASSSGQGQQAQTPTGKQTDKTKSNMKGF

COc1cc2nc(C)nc(N[C@H](C)c3cccc(-c4cn[nH]c4)c3)c2cc1OC
Activity [1]: 76% | Activity [2]: 96% | Activity [3]: 99% | Activity [4]: 72% | Activity [5]: 100% | Activity [6]: 89% | Activity [7]: 100% | Activity [8]: 65% | Activity [9]: 100%

COc1cc2ncnc(N[C@H](C)c3cccc4ccccc34)c2cc1OC
Activity [1]: 96% | Activity [2]: 100% | Activity [3]: 5.8% | Activity [4]: 100% | Activity [5]: 87% | Activity [6]: 88% | Activity [7]: 100% | Activity [8]: 100% | Activity [9]: 89%
